Patent publication US20100087516A1, “ANTIBACTERIAL MACROLACTIN A THAT BACILLUS POLYFERMENTICUS KJS-2 PRODUCED IN” (priority 2007, published 2010)
Values after ≈ are worked out from the molar mass of the structure shown. Like-named read-outs stand apart in the source and are kept apart here.

Legend:
Burkholderia cepacia = settings: cited from earlier work
[1] = test system: 11 VRE strains, clinically isolated; test: Minimal inhibitory concentration (MIC>90) in MH II medium; type: cell-based, vancomycin-resistant enterococci
Method: (§1) The MIC (minimal inhibitory concentration) against VRE and MRSA was measured to test antibiotic activity of Macrolactin A produced by Bacillus polyfermenticus KJS-2, which is the strain of the present invention, against the two strains. The strains used for the experiment were 11 VRE strains and 13 MRSA strains, which were clinically isolated. Each strain used for the experiment was cultured in MH II medium at 200 rpm for 6 hours at 37° C., the absorbance of the medium measured at OD600nm using a UV detector, and then 1 ml aliquot of the medium was spread over MH II agar medium and incubated for 16 hours at 37° C. The number of colonies formed on the agar medium after 16 hours of incubation was counted. Each strain used for experiment was cultured in MH II medium at 200 rpm for 6 hours at 37° C., and the absorbance of the medium was measured at OD600nm using a UV detector. The number of cells were calculated based on the ratio of the number of colonies to the absorbance of the medium, and measured by the above process. Each culture medium was diluted to the final cell concentration of 0.25*10^7 cfu/ml and Macrolactin A was dissolved in the solvent DMSO, while ampicillin, teycoplanin, vancomycin and methillin were dissolved in water. To measure the MIC of Macrolactin A or of the four antibiotics, the mixture of the materials listed in Table 5 and Macrolactin A or the mixture of the materials listed in Table 6 and each of the four antibiotics, respectively in a 500 μl eppendorff tub, was incubated at 200 rpm for 16 hours at 37° C., and then absorbance was measured by a UV/Visible Light detector at 600 nm using a Fluorescence Multi-Detection Reader.

Herpes simplex = settings: cited from earlier work
VRE5 = test: Bioassay at a gradient of concentration on TSB agar medium; type: cell-based, vancomycin-resistant enterococci; settings: 10 μl of solution in 50% acetone
HIV = settings: cited from earlier work
[2] = test system: vancomycin-resistant enterococci (VRE); settings: cited from earlier work
[3] = test system: Vancomycin-resistant enterococci; test: Inhibitory effect on VRE in liquid medium; type: cell-based; settings: for average absorbance (OD), Macrolactin A addition group: Average of 11 VRE strains
Method: For the experiment with VRE, the strains were inoculated into a liquid medium upto a concentration of 1,000,000 cfu/mL and cultured either with (for strains to be tested) or without (for controls) Macrolactin A. […] […] After 4 hours of culture, the average absorbance of the control group was 0.76, while that of the group cultured with Macrolactin A was 0.19, showing significant difference between the two groups.

[4] = test system: 13 MRSA strains, clinically isolated; test: Minimal inhibitory concentration (MIC>90) in MH II medium; type: cell-based, methicillin-resistant Staphylococcus aureus
Method: as §1

[5] = test system: biosynthesis of cholesterol; settings: cited from earlier work
Heat and pH stability = type: physicochemical
[6] = test system: methicillin-resistant Staphylococcus aureu (MRSA); settings: cited from earlier work
[7] = test system: B16-F10 murine melanoma cancer cell; settings: cited from earlier work
[8] = test system: Vancomycin-resistant Enterococci; test: Antibiotic activity test of HPLC fractions of the culture medium; type: cell-based
Method: (§2) In order to purify the antibiotic substance produced by strain Bacillus polyfermenticus KJS-2, the seed culture of the strain was diluted into 3 L of TSB medium (TSB agar: Tryptone 17 g, Soytone 3 g, Dextrose 2.5 g, NaCl 5 g, Dipotassium Phosphate 2.5 g, pH 6.8 to 72 to a final concentration of 4% and was cultured for 2.5 days (30° C., 200 rpm, 1 vvm, pH6.8). The culture medium was extracted with […] and analyzed by HPLC under the conditions using a solvent of Step 2 of Example 1, and each peak was fractionated as in FIG. 4. Each fraction was tested for antibiotic activity against Escherichia coli, Bacillus subtilis 168 and Vancomycin-resistant Enterococci. […] FIG. 5 below is the analysis of fraction 1 of FIG. 4 by LC/Mass under the same conditions of Step 2 of Example 1, and the purification was to a purity of 94.63%.

Bacillus subtilis 168 = test: as above; type: cell-based
Method: as §2

Escherichia coli = test: as above; type: cell-based
Method: as §2

CC1CCC/C=C/C=C/C(O)CC(O)C/C=C\C=C\C(O)C/C=C/C=C\C(=O)O1 (stereo not drawn) [Macrolactin A]
antibiotic activity against Burkholderia cepacia (Burkholderia cepacia): antibiotic activity only against MRSA
activity relative to teycoplanin (average MIC>90) ([1]; 11 VRE strains): 4 times
average MIC>90 ([1]; Average of the 11 VRE strains): 31.25 µg/mL
MIC>90 ([1]; VRE1): 31.25 µg/mL (≈ 77.6 µM)
MIC>90 ([1]; VRE2): 31.25 µg/mL (≈ 77.6 µM)
MIC>90 ([1]; VRE3): 31.25 µg/mL (≈ 77.6 µM)
MIC>90 ([1]; VRE4): 31.25 µg/mL (≈ 77.6 µM)
MIC>90 ([1]; VRE5): 15.63 µg/mL (≈ 38.8 µM)
MIC>90 ([1]; VRE6): 31.25 µg/mL (≈ 77.6 µM)
MIC>90 ([1]; VRE7): 31.25 µg/mL (≈ 77.6 µM)
MIC>90 ([1]; VRE9): 31.25 µg/mL (≈ 77.6 µM)
MIC>90 ([1]; VRE10): 31.25 µg/mL (≈ 77.6 µM)
MIC>90 ([1]; VRE914): 62.5 µg/mL (≈ 155 µM)
MIC>90 ([1]; VRE915): 15.63 µg/mL (≈ 38.8 µM)
antiviral activity against Herpes simplex (Herpes simplex): antiviral activity
concentration of solution that inhibits VRE5 on TSB agar medium (VRE5): above 1.25 mg/ml
antiviral activity against HIV (HIV): antiviral activity
antibiotic activity against VRE [2]: antibiotic activity only against MRSA
average absorbance (OD), Macrolactin A addition group ([3]; culture 4 hours, 50 μg/mL): 0.19 OD
average absorbance (OD), Macrolactin A addition group ([3]; culture 6 hours, 50 μg/mL): 0.26 OD
OD, Macrolactin A addition group ([3]; VRE1, culture 4 hours, 50 μg/mL): 0.216 OD
OD, Macrolactin A addition group ([3]; VRE1, culture 6 hours, 50 μg/mL): 0.207 OD
OD, Macrolactin A addition group ([3]; VRE2, culture 4 hours, 50 μg/mL): 0.279 OD
OD, Macrolactin A addition group ([3]; VRE2, culture 6 hours, 50 μg/mL): 0.391 OD
OD, Macrolactin A addition group ([3]; VRE3, culture 4 hours, 50 μg/mL): 0.240 OD
OD, Macrolactin A addition group ([3]; VRE3, culture 6 hours, 50 μg/mL): 0.314 OD
OD, Macrolactin A addition group ([3]; VRE4, culture 4 hours, 50 μg/mL): 0.166 OD
OD, Macrolactin A addition group ([3]; VRE4, culture 6 hours, 50 μg/mL): 0.180 OD
OD, Macrolactin A addition group ([3]; VRE5, culture 4 hours, 50 μg/mL): 0.176 OD
OD, Macrolactin A addition group ([3]; VRE5, culture 6 hours, 50 μg/mL): 0.153 OD
OD, Macrolactin A addition group ([3]; VRE6, culture 4 hours, 50 μg/mL): 0.171 OD
OD, Macrolactin A addition group ([3]; VRE6, culture 6 hours, 50 μg/mL): 0.179 OD
OD, Macrolactin A addition group ([3]; VRE7, culture 4 hours, 50 μg/mL): 0.173 OD
OD, Macrolactin A addition group ([3]; VRE7, culture 6 hours, 50 μg/mL): 0.133 OD
OD, Macrolactin A addition group ([3]; VRE8, culture 4 hours, 50 μg/mL): 0.228 OD
OD, Macrolactin A addition group ([3]; VRE8, culture 6 hours, 50 μg/mL): 0.589 OD
growth of VRE8 and VRE11 in liquid medium ([3]; VRE8 and VRE11, 50 μg/mL, lower sensitivity than the other strains): notable growth retardation
OD, Macrolactin A addition group ([3]; VRE11, culture 4 hours, 50 μg/mL): 0.236 OD
OD, Macrolactin A addition group ([3]; VRE11, culture 6 hours, 50 μg/mL): 0.507 OD
OD, Macrolactin A addition group ([3]; VRE14, culture 4 hours, 50 μg/mL): 0.078 OD
OD, Macrolactin A addition group ([3]; VRE14, culture 6 hours, 50 μg/mL): 0.050 OD
OD, Macrolactin A addition group ([3]; VRE15, culture 4 hours, 50 μg/mL): 0.145 OD
OD, Macrolactin A addition group ([3]; VRE15, culture 6 hours, 50 μg/mL): 0.131 OD
growth of VRE strains in liquid medium ([3]; nine out of eleven strains tested, 50 μg/mL): remarkable growth inhibition
activity relative to teycoplanin (average MIC>90) ([4]; 13 MRSA strains): 5.3 times
average MIC>90 ([4]; Average of the 13 MRSA strains): 19.83 µg/mL
MIC>90 ([4]; MRSA1): 31.25 µg/mL (≈ 77.6 µM)
MIC>90 ([4]; MRSA2): 15.63 µg/mL (≈ 38.8 µM)
MIC>90 ([4]; MRSA3): 15.63 µg/mL (≈ 38.8 µM)
MIC>90 ([4]; MRSA4): 31.25 µg/mL (≈ 77.6 µM)
MIC>90 ([4]; MRSA5): 31.25 µg/mL (≈ 77.6 µM)
MIC>90 ([4]; MRSA6): 31.25 µg/mL (≈ 77.6 µM)
MIC>90 ([4]; MRSA7): 15.63 µg/mL (≈ 38.8 µM)
MIC>90 ([4]; MRSA8): 7.81 µg/mL (≈ 19.4 µM)
MIC>90 ([4]; MRSA8*): 15.63 µg/mL (≈ 38.8 µM)
MIC>90 ([4]; MRSA9): 15.63 µg/mL (≈ 38.8 µM)
MIC>90 ([4]; MRSA10): 15.63 µg/mL (≈ 38.8 µM)
MIC>90 ([4]; MRSA11): 15.63 µg/mL (≈ 38.8 µM)
MIC>90 ([4]; MRSA11*): 15.63 µg/mL (≈ 38.8 µM)
inhibitory effect on the biosynthesis of cholesterol [5]: inhibitory effect
heat stability (Heat and pH stability): excellent heat stability
stability in weak acidic and neutral environments (Heat and pH stability; weak acidic and neutral environments): very stable
antibiotic activity against MRSA [6]: antibiotic activity only against MRSA
cytotoxicity on the B16-F10 murine melanoma cancer cell [7]: shows cytotoxicity
antibiotic activity against Vancomycin-resistant Enterococci [8]: showed antibiotic activity
antibiotic activity against Bacillus subtilis 168 (Bacillus subtilis 168): excellent antibiotic activity
antibiotic activity against Bacillus subtilis 168 (Bacillus subtilis 168; listed as fraction 1): had antibiotic activity
antibiotic activity against Escherichia coli (Escherichia coli): excellent antibiotic activity
antibiotic activity against Escherichia coli (Escherichia coli; listed as fraction 1): had antibiotic activity
